Test system: noninfectious diarrhea in HIV positive subjects
Experiment: Randomized double-blinded study of Acetaminophen vs Ibuprofen suspension in HIV positive subjects with noninfectious diarrhea
Assay type: in vivo, human
Settings: for average number of stools twenty-four hours later: after 24 hours of treatment, clear liquid diet, range in brackets, two-tailed p <0.0001 between groups, 95% CI 1.44-2.6; for average number of stools on the first visit (day 1): baseline at first visit (day 1), 42 enrollees per group
Experimental: HIV positive subjects who present with noninfectious diarrhea are enrolled in a study. All enrollees are randomly divided into two groups A (Acetaminophen) and B (Ibuprofen) and treated for 24 hours. They receive a double-blinded suspension of either Acetaminophen or Ibuprofen during the study period. The enrollees are instructed to consume only a clear liquid diet during the study period. After 24 hours, the number of loose stools since last visit and status of hydration are reassessed. In addition, enrollees are examined and assessed for any possible side effects of the medications. A total of 84 patients are enrolled into the study. Both drug categories has 42 (50%) enrollees. Two patients are lost to follow up in each group. The average number of stools on the first visit (day 1) in group A (Acetaminophen) is 5.12 and the average number of stools in group B (ibuprofen) is 5.25. Twenty-four hours later, the average number of stools, in group A is 3.45 (1-5) and the average number of stool in group B, is 1.9 (0-4). The two-tailed p-value was <0.0001 with a confidence interval at 95% (1.44-2.6).

Structure (SMILES) | average number of stools twenty-four hours later | average number of stools on the first visit (day 1)
CC(=O)Nc1ccc(O)cc1 [Acetaminophen] | 3.45 (1-5) | 5.12
CC(C)Cc1ccc(C(C)C(=O)O)cc1 (stereo not shown) [ibuprofen] | 1.9 (0-4) | 5.25
